Measured values as given in patent publication US6737058B2, “Methods for inhibiting endothelial cell and fibrinogen mediated inflammation using fibrinogen specific antibodies” (The Scripps Research Institute, priority 1992, dated 2004).

Tested on: HUVEC
Assay: Inhibition of 125I-labelled fibrinogen binding to HUVEC by cold fibrinogen, anti-VNR antibodies and RGD/RGE peptides
Parameters: species or system human
Protocol: Binding of ^125I-labelled fibrinogen binding to HUVEC assays were performed in the presence of 50 molar excess of unlabelled fibrinogen in order to confirm the specificity of binding as shown in Example 3A. The binding assay was performed as described in Example 3A with the exception that unlabelled fibrinogen was admixed to HUVEC at a 50 molar excess (approximately […] fibrinogen) concurrently with 50 μg/ml of ^125I-labelled fibrinogen. The protein-cell admixtures were maintained at 22° C. for 30 minutes to allow for binding of fibrinogen to HUVEC. In addition to cold fibrinogen, a 50 fold molar excess of BSA was separately admixed as a control. The amount of fibrinogen bound under the above conditions was quantitated as described in Example 3A. The uninhibited total binding of ^125I-labelled fibrinogen saturated after 30 minutes at approximately 4000 cpm per well. […] The binding of fibrinogen to the HUVEC surface fibrinogen receptor is therefore specific.
The specificity of binding to an RGD-independent fibrinogen receptor was confirmed in competition assays performed as described above in the presence of monoclonal antibodies against the beta subunit of the RGD-dependent VNR and in the presence of RGD-containing peptides. For the assays in which the ability of anti-VNR monoclonal antibodies, designated mAb 609 and mAb 7E3, to inhibit the binding of ^125I-labelled fibrinogen to HUVEC, the antibodies were separately maintained at a concentration of 25 μg/ml with HUVEC for 20 minutes at 37° C. After the maintenance period, the antibody-treated HUVEC were washed once with serum-free RPMI 1640 to remove any unbound antibody. Labelled fibrinogen was then admixed to the treated HUVEC at a concentration of 50 μg/ml in the presence of 2.5 mM CaCl2 and […] PPack. The resultant admixtures were maintained for 10-30 minutes at 22° C. The fibrinogen-treated HUVEC were then washed, solubilized and counted as described in Example 3A.
To confirm that the fibrinogen binding site on HUVEC was not RGD dependent, inhibition assays performed as described above for inhibiting with antibodies except that they were done in the presence of 1.0 mM of an RGD-containing peptide. A control RGE-containing peptide was also included in the assay. At selected time points over the time course of one hour, the HUVEC were harvested as described in Example 3A.

For “fibrinogen: fibrinogen isolated from fresh plasma by cold ethanol fractionation, fibronectin-free”, the “uninhibited total binding of 125I-labelled fibrinogen at saturation” value (50 μg/ml, after 30 minutes, 22° C.) was “approximately 4000 cpm per well”, the “inhibition of 125I-labelled fibrinogen binding to HUVEC” value (50 molar excess of unlabelled protein, 50 μg/ml labelled fibrinogen, 22° C., 30 minutes) was “half that of the total uninhibited binding” and the “inhibition of 125I-labelled fibrinogen binding to HUVEC (FIG. 7)” value (cold fibrinogen in 50 molar excess, 10-30 minutes) was “almost completely inhibited”. For the same substance, the “inhibition of 125I-labelled fibrinogen binding to HUVEC (FIG. 8)” value (cold fibrinogen, time course of one hour) was “completely inhibited”.
